{
  "source": "paper PMC8348780",
  "about": "“Preparation and Evaluation of Novel Folate Isonitrile ^99mTc Complexes as Potential Tumor Imaging Agents to Target Folate Receptors” (Molecules, 2021)",
  "key": {"[1]": {"experiment": "Stability in saline / radiolabeling solution at room temperature (RCP by radio-HPLC)", "type": "physicochemical", "settings": "4 h", "protocol": "(§1) The complexes were determined by ITLC/SG of the ACD system and radio-HPLC. The ITLC/SG trip was cut into 10 equal parts, and radioactive counting of ITLC strips was determined by a γ-counter. ITLC results of both complexes were as follows: in ACD solution, [^99mTc]Tc-CN5FA and [^99mTc]Tc-CNPFA stayed at the origin (Rf = 0–0.1), while ^99mTcO4^− (Rf = 0.9–1.0) and ^99mTcO2·nH2O (Rf = 0.8–1.0) were moved to the front. Radio-HPLC was analyzed by a mobile phase system consisting of 0.1% TFA water (solvent A) and 0.1% TFA acetonitrile (solvent B) with a gradient of 0−2 min 10% B, 2−5 min 10%−90% B, 10−20 min 90% B, and 20−25 min 90%−10% B (system B) at a flow rate of 1 mL/min. All experiments were performed in triplicate.\n(§2) The stability of [^99mTc]Tc-CN5FA and [^99mTc]Tc-CNPFA in vitro was evaluated by measuring the RCP of the complexes. Stability in saline was achieved by holding the solution at room temperature for 4 h. Stability in the serum was achieved by mixing 100 μL of [^99mTc]Tc-CN5FA or [^99mTc]Tc-CNPFA with 200 μL of mouse serum at 37 °C for 4 h. After precipitation using acetonitrile, centrifugation, and concentration, the solutions were analyzed by radio-HPLC."}, "[2]": {"experiment": "Stability in mouse serum at 37 °C (RCP by radio-HPLC)", "type": "in vitro ADME", "settings": "4 h", "protocol": "as §1, §2"}, "[3]": {"experiment": "Partition coefficient, 1-octanol / phosphate buffer pH 7.4", "type": "physicochemical", "settings": "1-octanol / phosphate buffer 0.025 M", "protocol": "The partition coefficient was measured as follows: 1.9 mL of phosphate buffer solution (0.025 M, pH 7.4), 2.0 mL of 1-octanol, and 0.1 mL of ^99mTc-CN5FA or ^99mTc-CNPFA solution were added to the centrifuge tube, and the sample was swirled for 5 min and centrifuged for 5 min (3000 r/min). Then, the radioactivity counts of the two phases were measured by taking 0.1 mL from the organic phase and the water phase. The partition coefficient P was calculated. The final partition coefficient was expressed as log P ± SD."}, "[4]": {"target": "T1, folate receptor (KB cells) (Homo sapiens, UniProt P15328)", "T1 construct": "endogenous in cells; host or cells: KB cells", "T1 sequence (P15328 25-257)": "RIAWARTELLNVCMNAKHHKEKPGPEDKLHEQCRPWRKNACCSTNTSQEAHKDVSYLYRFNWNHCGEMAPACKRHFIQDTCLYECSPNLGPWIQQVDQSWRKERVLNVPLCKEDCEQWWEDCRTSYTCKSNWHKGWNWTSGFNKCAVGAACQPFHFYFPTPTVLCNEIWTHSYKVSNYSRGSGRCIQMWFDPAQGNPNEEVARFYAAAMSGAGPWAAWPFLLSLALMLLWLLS", "experiment": "In vitro competitive binding with KB cells", "settings": "37 °C, 2 h, competitive binding with inhibitor", "protocol": "KB cells were cultured with FFRPMI 1640 medium 24 h in advance on a 48-well plate with 5 × 10^4 cells per well. The labeling solution was diluted to 5 μCi/mL with the same medium after growing, and the inhibitor was prepared at different concentrations. The 48-well plates were divided into eight groups, and each group was incubated with 100 μL of inhibitor solution, 100 μL of diluted labeled solution (5 μCi/mL), and 200 μL of medium at 37 °C for 2 h.\nAfter removing the cell plate from the incubator, the medium was removed, and the cells were washed with PBS (0.1 M, pH 7.4). The washed cells were lysed with NaOH (1 M) for 5 min. Pyrolysates were collected in the hoses, and the radioactivity count of each hose was measured by a γ-counter. The data were analyzed with GraphPad Prism 5.0 and nonlinearly fit to the log IC50 ± SD value."}, "[5]": {"system": "KB tumor-bearing mice", "experiment": "Biodistribution study in KB tumor-bearing mice", "type": "in vivo, BALB/c nude mice", "settings": "for Tumor uptake: KB tumor", "protocol": "The biodistribution experiments were divided into normal groups and inhibition groups (n = 3), in which the inhibition group was injected with inhibitor (about 4 × 10^4 µg/kg) 30 min in advance. The KB tumor-bearing mice were decapitated 30 and 120 min after the tail vein injection of 0.1 mL labeled solution (about 7.4 × 10^4 Bq). The heart, liver, lung, kidney, spleen, stomach, bone, muscle, intestine, tumor, blood, and other related tissues and organs were wiped clean and weighed, and the radioactivity count was measured. Each tissue per gram of injection dose (%ID/g) was calculated."}, "[6]": {"system": "KB tumor-bearing mice", "experiment": "SPECT/CT imaging study in KB tumor-bearing mice", "type": "in vivo, BALB/c nude mice", "settings": "2 h post injection, about 18.5 MBq i.v.", "protocol": "The SPECT/CT imaging experiments were also divided into a normal group and an inhibition group (n = 3). The labeled solution (about 18.5 MBq) was injected into the tail vein of nude mice bearing KB tumor. The inhibition group was injected with 100 µg FA (about 4 × 10^4 µg/kg) 30 min in advance. After 2 h, the SPECT/CT scan was performed in anesthetized mice by using 1.5% isoflurane. The SPECT acquisition (peak value 140 keV, 20% width, 90° rotation, MMP 919 Collimator) was performed after 4 min of CT scanning (512 views, 2 × 2 binding, 75 kV, exposure time 230 ms). SPECT/CT images were made using HiSPECT software and vivoquant 2.5 software."}, "[7]": {"settings": "2 h p.i., block: FA about 4 × 10^4 µg/kg 30 min in advance"}},
  "data": [
    {"molecule": "[99Tc+].[C-]#[N+]CCOCCOCCOCCOCCC(=O)NCCNC(=O)CC[C@H](NC(=O)c1ccc(NCc2cnc3nc(N)[nH]c(=O)c3n2)cc1)C(=O)O.[C-]#[N+]CCOCCOCCOCCOCCC(=O)NCCNC(=O)CC[C@H](NC(=O)c1ccc(NCc2cnc3nc(N)[nH]c(=O)c3n2)cc1)C(=O)O.[C-]#[N+]CCOCCOCCOCCOCCC(=O)NCCNC(=O)CC[C@H](NC(=O)c1ccc(NCc2cnc3nc(N)[nH]c(=O)c3n2)cc1)C(=O)O.[C-]#[N+]CCOCCOCCOCCOCCC(=O)NCCNC(=O)CC[C@H](NC(=O)c1ccc(NCc2cnc3nc(N)[nH]c(=O)c3n2)cc1)C(=O)O.[C-]#[N+]CCOCCOCCOCCOCCC(=O)NCCNC(=O)CC[C@H](NC(=O)c1ccc(NCc2cnc3nc(N)[nH]c(=O)c3n2)cc1)C(=O)O.[C-]#[N+]CCOCCOCCOCCOCCC(=O)NCCNC(=O)CC[C@H](NC(=O)c1ccc(NCc2cnc3nc(N)[nH]c(=O)c3n2)cc1)C(=O)O", "note": "[[^99mTc]Tc-CNPFA]", "values": [
      {"measurement": "RCP after incubation", "setting": "[1]", "value": "more than 95%"},
      {"measurement": "RCP after incubation", "setting": "[2]", "value": "more than 95%"},
      {"measurement": "log P", "setting": "[3]", "value": "−2.28 ± 0.02"},
      {"measurement": "IC50", "setting": "[4]", "value": "3.8 ± 0.07", "unit": "nM"},
      {"measurement": "T/B (tumor/blood ratio)", "setting": "[5]; 0.5 h p.i.", "value": 1.02},
      {"measurement": "T/M (tumor/muscle ratio)", "setting": "[5]; 0.5 h p.i.", "value": 2.82},
      {"measurement": "Blood uptake", "setting": "[5]; 0.5 h p.i., i.v., n = 3", "value": "4.08 ± 0.54", "unit": "%ID/g"},
      {"measurement": "Bone uptake", "setting": "[5]; 0.5 h p.i., i.v., n = 3", "value": "1.77 ± 0.06", "unit": "%ID/g"},
      {"measurement": "Heart uptake", "setting": "[5]; 0.5 h p.i., i.v., n = 3", "value": "1.92 ± 0.06", "unit": "%ID/g"},
      {"measurement": "Intestines uptake", "setting": "[5]; 0.5 h p.i., i.v., n = 3", "value": "4.98 ± 1.57", "unit": "%ID/g"},
      {"measurement": "Kidney uptake", "setting": "[5]; 0.5 h p.i., i.v., n = 3", "value": "81.30 ± 4.69", "unit": "%ID/g"},
      {"measurement": "Liver uptake", "setting": "[5]; 0.5 h p.i., i.v., n = 3", "value": "15.84 ± 1.19", "unit": "%ID/g"},
      {"measurement": "Lung uptake", "setting": "[5]; 0.5 h p.i., i.v., n = 3", "value": "4.01 ± 0.30", "unit": "%ID/g"},
      {"measurement": "Muscle uptake", "setting": "[5]; 0.5 h p.i., i.v., n = 3", "value": "1.48 ± 0.07", "unit": "%ID/g"},
      {"measurement": "Spleen uptake", "setting": "[5]; 0.5 h p.i., i.v., n = 3", "value": "3.65 ± 0.72", "unit": "%ID/g"},
      {"measurement": "Stomach uptake", "setting": "[5]; 0.5 h p.i., i.v., n = 3", "value": "6.67 ± 0.73", "unit": "%ID/g"},
      {"measurement": "Thyroid uptake", "setting": "[5]; 0.5 h p.i., i.v., n = 3", "value": "0.08 ± 0.02", "unit": "%ID"},
      {"measurement": "T/B (tumor/blood ratio)", "setting": "[5]; 2 h p.i.", "value": 1.73},
      {"measurement": "T/M (tumor/muscle ratio)", "setting": "[5]; 2 h p.i.", "value": 3.01},
      {"measurement": "Blood uptake", "setting": "[5]; [7]", "value": "1.97 ± 0.34", "unit": "%ID/g"},
      {"measurement": "Bone uptake", "setting": "[5]; [7]", "value": "1.02 ± 0.10", "unit": "%ID/g"},
      {"measurement": "Heart uptake", "setting": "[5]; [7]", "value": "0.81 ± 0.12", "unit": "%ID/g"},
      {"measurement": "Intestines uptake", "setting": "[5]; [7]", "value": "1.70 ± 0.22", "unit": "%ID/g"},
      {"measurement": "Kidney uptake", "setting": "[5]; [7]", "value": "37.60 ± 2.46", "unit": "%ID/g"},
      {"measurement": "Liver uptake", "setting": "[5]; [7]", "value": "10.88 ± 1.03", "unit": "%ID/g"},
      {"measurement": "Lung uptake", "setting": "[5]; [7]", "value": "2.11 ± 0.28", "unit": "%ID/g"},
      {"measurement": "Muscle uptake", "setting": "[5]; [7]", "value": "0.51 ± 0.09", "unit": "%ID/g"},
      {"measurement": "Spleen uptake", "setting": "[5]; [7]", "value": "3.30 ± 0.66", "unit": "%ID/g"},
      {"measurement": "Stomach uptake", "setting": "[5]; [7]", "value": "2.18 ± 0.22", "unit": "%ID/g"},
      {"measurement": "Thyroid uptake", "setting": "[5]; [7]", "value": "0.05 ± 0.01", "unit": "%ID"},
      {"measurement": "Blood uptake", "setting": "[5]; 2 h p.i., i.v., n = 3", "value": "1.46 ± 0.03", "unit": "%ID/g"},
      {"measurement": "Bone uptake", "setting": "[5]; 2 h p.i., i.v., n = 3", "value": "0.79 ± 0.11", "unit": "%ID/g"},
      {"measurement": "Heart uptake", "setting": "[5]; 2 h p.i., i.v., n = 3", "value": "1.30 ± 0.09", "unit": "%ID/g"},
      {"measurement": "Intestines uptake", "setting": "[5]; 2 h p.i., i.v., n = 3", "value": "1.60 ± 0.24", "unit": "%ID/g"},
      {"measurement": "Kidney uptake", "setting": "[5]; 2 h p.i., i.v., n = 3", "value": "80.25 ± 1.23", "unit": "%ID/g"},
      {"measurement": "Liver uptake", "setting": "[5]; 2 h p.i., i.v., n = 3", "value": "10.39 ± 0.23", "unit": "%ID/g"},
      {"measurement": "Lung uptake", "setting": "[5]; 2 h p.i., i.v., n = 3", "value": "2.04 ± 0.06", "unit": "%ID/g"},
      {"measurement": "Muscle uptake", "setting": "[5]; 2 h p.i., i.v., n = 3", "value": "0.84 ± 0.04", "unit": "%ID/g"},
      {"measurement": "Spleen uptake", "setting": "[5]; 2 h p.i., i.v., n = 3", "value": "2.85 ± 0.26", "unit": "%ID/g"},
      {"measurement": "Stomach uptake", "setting": "[5]; 2 h p.i., i.v., n = 3", "value": "3.65 ± 0.75", "unit": "%ID/g"},
      {"measurement": "Thyroid uptake", "setting": "[5]; 2 h p.i., i.v., n = 3", "value": "0.06 ± 0.01", "unit": "%ID"},
      {"measurement": "Tumor uptake", "setting": "[5]; 0.5 h p.i., i.v., n = 3", "value": "4.18 ± 0.36", "unit": "%ID/g"},
      {"measurement": "Tumor uptake", "setting": "[5]; [7]", "value": "1.62 ± 0.08", "unit": "%ID/g"},
      {"measurement": "Tumor uptake", "setting": "[5]; 2 h p.i., i.v., n = 3", "value": "2.53 ± 0.12", "unit": "%ID/g"},
      {"measurement": "Visualization of tumor lesions by SPECT/CT", "setting": "[6]", "value": "clearly visualized"}
    ]}
  ]
}
